Columns and labels:
[1] = tested on: mouse; details: Subchronic inhalation toxicity, other, Whole-Body, dose end: 13 week, group: systemic
[2] = tested on: mouse; details: Subchronic inhalation toxicity, b6c3f1, Whole-Body, dose end: 12 week, group: systemic
[3] = tested on: rat; details: Subchronic inhalation toxicity, fischer, Whole-Body, dose end: 12 week, group: systemic
[4] = tested on: rat; details: Subchronic oral toxicity in rodents, wistar, Feed, dose end: 104 day, group: systemic
[5] = tested on: mouse; details: Subchronic inhalation toxicity, b6c3f1, Whole-Body, dose end: 13 week, group: systemic, systemic / organ weight / kidney / absolute + systemic / organ weight / kidney / relative to body weight + systemic / organ weight / liver…
[6] = tested on: mouse; details: Multigenerational reproductive toxicity study, cd1, Oral, Water, dose end: 2 generation
[7] = tested on: rabbit; details: Prenatal developmental toxicity study, himalayan, Inhalation, Whole-Body, dose end: 19 GD
[8] = tested on: mouse; details: Prenatal developmental toxicity study, other, Injection, Intraperitoneal, dose end: 15 GD
[9] = tested on: rat; details: Subchronic inhalation toxicity, fischer, Whole-Body, dose end: 13 week, group: systemic
[10] = tested on: mouse; details: Prenatal developmental toxicity study, other, Oral, Gavage/Intubation, dose end: 15 GD, group: developmental
[11] = tested on: mouse; details: Carcinogenicity; cd1; Inhalation; Whole-Body; dose end: 18 month; group: systemic; systemic / pathology microscopic / liver / hemosiderosis + systemic / pathology microscopic / liver / hyperplasia + systemic / pathology …
[12] = tested on: rat; details: Prenatal developmental toxicity study, sprague dawley, Inhalation, Whole-Body, dose end: 15 GD
[13] = tested on: rat; details: Prenatal developmental toxicity study, sprague dawley, Oral, Gavage/Intubation, dose end: 20 GD
[14] = tested on: rat; details: Prenatal developmental toxicity study, sprague dawley, Oral, Gavage/Intubation, dose end: 15 GD
[15] = tested on: rat; details: Combined chronic toxicity/carcinogenicity, sprague dawley, Inhalation, Whole-Body, dose end: 2 year, group: systemic
[16] = tested on: mouse; details: Subchronic oral toxicity in rodents, cd1, Feed, dose end: 119 day, group: systemic
[17] = systemic / clinical chemistry / alanine aminotransferase (alt/sgpt) / alanine aminotransferase (alt/sgpt) + systemic / clinical chemistry / …
[18] = systemic / clinical chemistry / cholesterol / cholesterol + systemic / hematology / erythrocyte (rbc) count differential / erythrocyte (rbc…
[19] = systemic / in life observation / mortality / mortality + systemic / pathology gross / liver / discolored + systemic / pathology microscopic…
[20] = systemic / pathology microscopic / liver / cytomegaly
[21] = systemic / clinical chemistry / sodium / sodium + systemic / in life observation / body weight / body weight gain + systemic / in life …
[22] = group: offspring, developmental / developmental malformation / bone / domed head + developmental / developmental malformation / nose / ecchymosis + systemic…
[23] = group: parental, systemic / organ weight / epididymis / absolute + systemic / organ weight / liver / absolute + systemic / organ weight / liver / relative to…
[24] = group: parental, systemic / organ weight / epididymis / absolute + systemic / organ weight / liver / absolute + systemic / pathology gross / sperm measure / …
[25] = group: reproductive, reproductive / reproductive performance / fertility / fertility + reproductive / offspring survival early / litter size / litter size + …
[26] = group: developmental, developmental / developmental malformation / bone / bipartite ossification + developmental / developmental malformation / bone / fused + …
[27] = group: maternal, systemic / in life observation / body weight / body weight
[28] = group: developmental, developmental / developmental malformation / bone / exencephaly
[29] = group: maternal, reproductive / reproductive performance / resorptions / resorptions
[30] = group: maternal, reproductive / reproductive performance / resorptions / resorptions + systemic / in life observation / body weight / body weight + systemic…
[31] = systemic / hematology / erythrocyte (rbc) count differential / erythrocyte (rbc) + systemic / hematology / mean corpuscular (cell) volume (…
[32] = developmental / developmental malformation / general / [other] + developmental / developmental malformation / general / crown-rump length + …
[33] = developmental / developmental malformation / general / crown-rump length + systemic / in life observation / body weight / fetal weight
[34] = group: developmental, systemic / in life observation / body weight / fetal weight
[35] = group: maternal, systemic / in life observation / body weight / body weight gain
[36] = group: developmental, developmental / developmental malformation / bone / incomplete ossification + systemic / in life observation / body weight / fetal weight
[37] = group: maternal, systemic / in life observation / body weight / body weight gain + systemic / in life observation / food consumption / food consumption
[38] = group: developmental, developmental / developmental malformation / general / [other] + developmental / developmental malformation / general / anasarca + …
[39] = group: maternal, reproductive / reproductive performance / resorptions / resorptions + systemic / in life observation / body weight / body weight gain + …
[40] = group: maternal, systemic / organ weight / placenta / absolute
[41] = systemic / organ weight / liver / relative to body weight + systemic / pathology microscopic / liver / clear cell focus + systemic / …
[42] = systemic / organ weight / liver / absolute + systemic / organ weight / liver / relative to body weight + systemic / pathology microscopic / …

In the case of `CN(C)C=O` [N,N-Dimethylformamide], the LOAEL [1, 17] is reported as greater than 800 ppm, the NOAEL [1, 17] is reported as no less than 800 ppm and the LEL [1, 18] is reported as 50 ppm. For the same compound, the NEL [1, 18] was less than 50 ppm, the LOAEL [2, 19] was greater than 1200 ppm and the NOAEL [2, 19] was no less than 1200 ppm. The LEL [2, 20] was 150 ppm, the NEL [2, 20] was less than 150 ppm and the LOAEL [3, 17] was greater than 1200 ppm. For the same compound, the NOAEL [3, 17] was no less than 1200 ppm, the LEL ([3]; systemic / clinical chemistry / alkaline phosphatase (alp/alk) / alkaline phosphatase (alp/alk)) was 300 ppm and the NEL ([3]; systemic / clinical chemistry / alkaline phosphatase (alp/alk) / alkaline phosphatase (alp/alk) + systemic / clinical chemistry / aspartate …) was 150 ppm. It also gave an LOAEL [4, 21] greater than 210 mg/kg/day, an NOAEL [4, 21] of no less than 210 mg/kg/day and an LEL ([4]; systemic / in life observation / food consumption / food consumption) of 69 mg/kg/day. It also gave an NEL ([4]; systemic / in life observation / food consumption / food consumption + systemic / in life observation / body weight / body weight gain + …) of 20 mg/kg/day, an LEL [5] of 50 ppm and an LOAEL [5] greater than 800 ppm. It also gave an NEL [5] of less than 50 ppm, an NOAEL [5] of no less than 800 ppm and an LEL [6, 22] of 545 mg/kg/day. The LOAEL [6, 22] was greater than 1030 mg/kg/day, the NEL [6, 22] was 185 mg/kg/day and the NOAEL [6, 22] was no less than 1030 mg/kg/day. It also gave an LEL [6, 23] of 185 mg/kg/day, an NEL [6, 23] of less than 185 mg/kg/day and an LOAEL [6, 24] greater than 1030 mg/kg/day. For the same compound, the NOAEL [6, 24] was no less than 1030 mg/kg/day, the NEL ([6]; group: reproductive, reproductive / reproductive performance / fertility / fertility) was 185 mg/kg/day and the LEL [6, 25] was 545 mg/kg/day. It also gave an LOAEL [6, 25] greater than 1030 mg/kg/day, an NOAEL [6, 25] of no less than 1030 mg/kg/day and an LEL [7, 26] of 450 ppm. The LOAEL [7, 26] was greater than 450 ppm, the NEL [7, 26] was 150 ppm and the NOAEL [7, 26] was no less than 450 ppm. It also gave an LEL [7, 27] of 450 ppm, an LOAEL [7, 27] greater than 450 ppm and an NEL [7, 27] of 150 ppm. It also gave an NOAEL [7, 27] of no less than 450 ppm, an LEL [8, 28] of 944 mg/kg/day and an LOAEL [8, 28] greater than 944 mg/kg/day. For the same compound, the NEL [8, 28] was 378 mg/kg/day, the NOAEL [8, 28] was no less than 944 mg/kg/day and the LEL [8, 29] was 378 mg/kg/day. The NEL [8, 29] was less than 378 mg/kg/day, the LOAEL [8, 30] was greater than 944 mg/kg/day and the NOAEL [8, 30] was no less than 944 mg/kg/day. The LOAEL [9, 17] was greater than 800 ppm, the NOAEL [9, 17] was no less than 800 ppm and the LEL [9, 31] was 50 ppm. It also gave an NEL [9, 31] of less than 50 ppm, an LOAEL [10, 32] greater than 548 mg/kg/day and an NOAEL [10, 32] of no less than 548 mg/kg/day. The LEL [10, 33] was 182 mg/kg/day, the NEL [10, 33] was less than 182 mg/kg/day and the LEL [11] was 25 ppm. For the same compound, the LOAEL [11] was greater than 400 ppm, the NEL [11] was less than 25 ppm and the NOAEL [11] was no less than 400 ppm. It also gave an LEL [12, 34] of 300 ppm, an LOAEL [12, 34] greater than 300 ppm and an NEL [12, 34] of 30 ppm. It also gave an NOAEL [12, 34] of no less than 300 ppm, an LEL [12, 35] of 300 ppm and an LOAEL [12, 35] greater than 300 ppm. The NEL [12, 35] was 30 ppm, the NOAEL [12, 35] was no less than 300 ppm and the LOAEL [13, 36] was greater than 300 mg/kg/day. The NEL [13, 36] was 50 mg/kg/day, the NOAEL [13, 36] was no less than 300 mg/kg/day and the LEL [13, 34] was 100 mg/kg/day. For the same compound, the LEL [13, 37] was 100 mg/kg/day, the LOAEL [13, 37] was greater than 300 mg/kg/day and the NEL [13, 37] was 50 mg/kg/day. It also gave an NOAEL [13, 37] of no less than 300 mg/kg/day, an LOAEL [14, 38] greater than 1510 mg/kg/day and an NEL [14, 38] of 166 mg/kg/day. It also gave an NOAEL [14, 38] of no less than 1510 mg/kg/day, an LEL ([14]; group: developmental, developmental / developmental malformation / general / [other] + developmental / developmental malformation / general / crown-rump length + …) of 503 mg/kg/day and an LOAEL [14, 39] greater than 1510 mg/kg/day. For the same compound, the NOAEL [14, 39] was no less than 1510 mg/kg/day, the LEL [14, 40] was 166 mg/kg/day and the NEL [14, 40] was less than 166 mg/kg/day. It also gave an LOAEL [15, 41] greater than 400 ppm, an NEL [15, 41] of 25 ppm and an NOAEL [15, 41] of no less than 400 ppm. The LEL ([15]; systemic / organ weight / liver / relative to body weight + systemic / pathology microscopic / liver / hypertrophy + systemic / clinical …) was 100 ppm, the LOAEL [16, 42] was greater than 246 mg/kg/day and the NOAEL [16, 42] was no less than 246 mg/kg/day. For the same compound, the LEL ([16]; systemic / organ weight / liver / relative to body weight) was 96 mg/kg/day and the NEL ([16]; systemic / organ weight / liver / relative to body weight + systemic / clinical chemistry / alanine aminotransferase (alt/sgpt) / alanine …) was 28 mg/kg/day.

Source: EPA's ToxRefDB 2
